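A five-concentration, 48-hour dose response in 96-well plates underlies each endpoint, interpolated linearly between surrounding concentrations. Here, GI50 denotes the concentration required for 50% inhibition of growth. TGI marks complete inhibition of growth.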
What was measured:
Experiment in all cases: NCI tumour cell line growth inhibition, 48 h
[1] = system: M19-MEL melanoma
[2] = system: MDA-MB-435
[3] = system: SNB-78 CNS
[4] = system: T-47D breast
[5] = system: BT-549 breast
[6] = system: HS 578T breast
[7] = system: DMS 114 small cell lung
[8] = system: RXF-631 renal
[9] = system: MDA-N

| SMILES | TGI [1] | GI50 [2] | TGI [2] | TGI [3] | GI50 [4] | TGI [4] | GI50 [5] | TGI [5] | GI50 [6] | TGI [6] | TGI [7] | TGI [8] | TGI [9] |
| --- | --- | --- | --- | --- | --- | --- | --- | --- | --- | --- | --- | --- | --- |
| CCN1C(=O)C/C(=C\C(C)=O)Nc2ccccc21 | > 100 µM | > 100 µM | > 100 µM | > 100 µM | > 100 µM | > 100 µM | > 100 µM | > 100 µM | > 100 µM | > 100 µM | > 100 µM | – | – |
| CC/C=C\C[C@H](O)C/C=C1/C(=O)C=C[C@@H]1C/C=C\CCCC(=O)NC(C)C | – | 2.3 µM | 6.51 µM | – | 4.19 µM | 19.2 µM | 2.45 µM | 6.13 µM | 7.74 µM | 49.5 µM | – | – | – |
| CC(=O)N1CCC2(C=Nc3ccccc32)CC1 | > 100 µM | – | – | > 100 µM | – | – | – | – | – | – | > 100 µM | – | – |
| CCn1c(=O)c(-c2ccn[nH]2)cc2c(C)nc(N)nc21 | – | 1.69 µM | > 100 µM | – | 0.173 µM | 0.748 µM | 0.225 µM | 4.29 µM | 0.35 µM | 2.38 µM | – | – | – |
| O=C(Cc1nc2ccccc2s1)C(=O)Nc1ccc(Cl)cc1 | > 100 µM | – | – | > 100 µM | – | – | – | – | – | – | > 100 µM | – | – |
| COc1cc(Nc2cnc3cc(C(F)(F)F)ccc3n2)cc(OC)c1OC | > 100 µM | – | – | > 100 µM | – | – | – | – | – | – | – | > 100 µM | – |
| C=C1C(=O)O[C@H]2[C@H]1CC/C(COC(=O)C(=O)c1c[nH]c3ccccc13)=C\CC[C@@]1(C)O[C@@H]21 | – | 2.63 µM | 9.82 µM | – | 1.61 µM | 4.47 µM | 2.08 µM | 5.22 µM | 4.89 µM | > 100 µM | – | – | – |
| O=C(Nc1ccc(Cl)c(C(F)(F)F)c1)C(=O)C(C(=O)/C=C/c1ccccc1)C1OC(=O)c2ccccc21 (stereo not drawn) | > 100 µM | – | – | > 100 µM | – | – | – | – | – | – | > 100 µM | – | – |
| Cn1ccnc1C(=O)/C=C/c1ccc(CC(=O)Nc2ccc(Cl)cc2)cc1 | – | 9.16 µM | > 25 µM | – | 4.3 µM | > 25 µM | 3.53 µM | > 25 µM | 15.7 µM | > 25 µM | – | – | – |
| COc1cccc(-c2nn(-c3ccccc3)cc2-c2ccnc(NCCNS(=O)(=O)c3ccc(Cl)cc3)c2)c1 | – | 3.81 µM | > 100 µM | – | 2.52 µM | 8.66 µM | 4.07 µM | > 100 µM | 5.73 µM | > 100 µM | – | – | – |
| CCNc1nnc(CSc2nc(-c3ccccc3)c(-c3ccccc3)[nH]2)s1 | 32.1 µM | – | – | 96.3 µM | – | – | – | – | – | – | 63.1 µM | – | – |
| CC(O)C1OC(O)C2OC(C)(C)OC12 (stereo not drawn) | – | – | > 100 µM | – | – | > 100 µM | – | > 100 µM | – | > 100 µM | – | – | > 100 µM |
| O=C(O)c1ccc(NC(=O)C2C(=O)C(=O)N(c3ccc(C(=O)O)cc3)C2=O)cc1 (stereo not drawn) | > 100 µM | – | – | > 100 µM | – | – | – | – | – | – | – | – | – |
| Cc1ccc(NC(c2ccccc2)c2ccc3cccnc3c2O)cc1 (stereo not drawn) | – | – | 19.3 µM | – | – | 36 µM | – | 15.3 µM | – | 61.3 µM | – | – | 17.7 µM |
